Results on 23 molecules are retold here after patent US8258311B2, “Human protein tyrosine phosphatase inhibitors and methods of use” (Aerpio Therapeutics Inc., priority 2006, dated 2012).

One assay deals with HPTPβ (Homo sapiens, UniProt P23467). Nature of the assay: HPTPβ inhibition (IC50). The class given is biochemical.
For the next assay, the target named is T1, PTP1B (Homo sapiens, UniProt P18031).
T1 sequence (P18031 1-435): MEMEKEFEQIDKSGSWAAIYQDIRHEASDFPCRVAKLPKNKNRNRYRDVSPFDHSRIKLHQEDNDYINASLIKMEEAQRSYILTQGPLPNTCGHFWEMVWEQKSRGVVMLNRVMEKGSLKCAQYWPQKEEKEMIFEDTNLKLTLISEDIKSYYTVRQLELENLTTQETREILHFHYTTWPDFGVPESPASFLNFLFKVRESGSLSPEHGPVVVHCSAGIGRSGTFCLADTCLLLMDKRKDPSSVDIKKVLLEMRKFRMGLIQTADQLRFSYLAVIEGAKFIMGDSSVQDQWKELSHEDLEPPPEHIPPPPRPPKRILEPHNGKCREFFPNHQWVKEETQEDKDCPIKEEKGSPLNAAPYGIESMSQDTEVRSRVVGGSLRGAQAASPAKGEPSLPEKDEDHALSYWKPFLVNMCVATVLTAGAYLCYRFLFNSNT
Put plainly: PTP1B inhibition (IC50). Format: biochemical.

Sequence of HPTPβ (P23467 23-1997): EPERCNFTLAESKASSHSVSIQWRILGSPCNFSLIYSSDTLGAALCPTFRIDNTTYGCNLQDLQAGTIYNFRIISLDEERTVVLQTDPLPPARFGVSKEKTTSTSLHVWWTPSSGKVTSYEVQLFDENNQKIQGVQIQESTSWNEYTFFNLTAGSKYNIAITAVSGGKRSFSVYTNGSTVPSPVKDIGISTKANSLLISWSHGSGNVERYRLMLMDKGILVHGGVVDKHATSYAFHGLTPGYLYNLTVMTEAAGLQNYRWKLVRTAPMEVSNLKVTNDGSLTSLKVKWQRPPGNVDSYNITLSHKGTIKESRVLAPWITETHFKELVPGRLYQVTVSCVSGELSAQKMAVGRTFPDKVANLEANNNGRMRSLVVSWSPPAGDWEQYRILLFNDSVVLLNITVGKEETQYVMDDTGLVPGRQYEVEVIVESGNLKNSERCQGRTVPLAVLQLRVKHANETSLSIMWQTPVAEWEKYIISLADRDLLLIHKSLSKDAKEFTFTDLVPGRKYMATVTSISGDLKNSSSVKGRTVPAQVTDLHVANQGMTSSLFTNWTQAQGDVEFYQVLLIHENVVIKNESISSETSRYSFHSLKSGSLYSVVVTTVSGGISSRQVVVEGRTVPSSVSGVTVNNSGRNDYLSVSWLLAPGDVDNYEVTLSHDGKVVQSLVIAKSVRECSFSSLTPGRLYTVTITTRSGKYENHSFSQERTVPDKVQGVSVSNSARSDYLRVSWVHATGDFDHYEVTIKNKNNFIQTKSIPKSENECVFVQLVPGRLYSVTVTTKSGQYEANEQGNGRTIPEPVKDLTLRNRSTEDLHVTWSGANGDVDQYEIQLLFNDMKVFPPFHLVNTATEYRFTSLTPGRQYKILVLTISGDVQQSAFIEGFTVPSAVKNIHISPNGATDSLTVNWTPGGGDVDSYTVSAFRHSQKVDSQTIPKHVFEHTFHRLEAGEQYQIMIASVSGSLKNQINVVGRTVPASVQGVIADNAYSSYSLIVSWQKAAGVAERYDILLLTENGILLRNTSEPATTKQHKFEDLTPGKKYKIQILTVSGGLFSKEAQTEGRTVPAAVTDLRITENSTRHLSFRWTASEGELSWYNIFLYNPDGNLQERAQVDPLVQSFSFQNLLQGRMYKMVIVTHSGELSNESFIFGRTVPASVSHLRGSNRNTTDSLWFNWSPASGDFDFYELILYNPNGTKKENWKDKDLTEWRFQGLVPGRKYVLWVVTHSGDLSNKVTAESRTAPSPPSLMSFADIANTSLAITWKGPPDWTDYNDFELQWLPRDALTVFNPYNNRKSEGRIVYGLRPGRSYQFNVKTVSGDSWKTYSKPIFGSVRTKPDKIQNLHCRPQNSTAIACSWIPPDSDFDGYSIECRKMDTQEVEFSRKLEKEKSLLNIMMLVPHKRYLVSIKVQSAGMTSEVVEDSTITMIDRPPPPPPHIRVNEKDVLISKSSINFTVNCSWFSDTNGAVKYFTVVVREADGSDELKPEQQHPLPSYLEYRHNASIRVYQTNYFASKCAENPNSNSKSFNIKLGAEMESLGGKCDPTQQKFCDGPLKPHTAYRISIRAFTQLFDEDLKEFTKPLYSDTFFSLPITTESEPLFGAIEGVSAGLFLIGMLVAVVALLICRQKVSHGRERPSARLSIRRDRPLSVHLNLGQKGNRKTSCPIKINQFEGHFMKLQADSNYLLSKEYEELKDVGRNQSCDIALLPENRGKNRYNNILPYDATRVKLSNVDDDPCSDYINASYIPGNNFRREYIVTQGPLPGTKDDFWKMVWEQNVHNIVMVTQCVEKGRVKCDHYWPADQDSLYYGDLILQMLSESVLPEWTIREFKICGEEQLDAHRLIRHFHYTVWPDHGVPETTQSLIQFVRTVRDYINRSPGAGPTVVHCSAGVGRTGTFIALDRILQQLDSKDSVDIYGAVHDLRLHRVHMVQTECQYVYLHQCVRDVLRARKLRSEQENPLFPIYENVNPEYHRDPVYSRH

Take `CCc1csc([C@H](Cc2ccc(NS(=O)(=O)O)cc2)NC(=O)CNC(=O)OC(C)(C)C)n1` [(S)-4-{2-[2-(tert-Butoxycarbonylamino)acetamido]-2-(4-ethylthiazol-2-yl)ethyl}phenylsulfamic acid]: the 50% inhibitory concentration (IC50) against HPTPβ was 28 nM; against PTP1B it was 16000 nM.
In the same order, the values of `CCOC(=O)Cc1csc([C@H](Cc2ccc(NS(=O)(=O)O)cc2)NC(=O)OC(C)(C)C)n1` are 167 nM and 50000 nM.
In the same order, the values of `CC(C)(C)C(=O)N[C@@H](Cc1ccc(NS(=O)(=O)O)cc1)c1nc(-c2ccccc2)cs1` [(S)-4-(2-(4-Phenylthiazol-2-yl)-2-pivalamidoethyl)phenylsulfamic acid] are 42 nM and 82300 nM.
Turning to `CCc1csc([C@H](Cc2ccc(NS(=O)(=O)O)cc2)NC(=O)[C@H](CC(C)C)NC(=O)OC(C)(C)C)n1` [4-{(S)-2-[(S)-2-(tert-Butoxycarbonylamino)-4-methylpentanamido]-2-(4-ethylthiazol-2-yl)ethyl}phenylsulfamic acid], the half-inhibitory concentration (IC50) on HPTPβ is 1 nM; against PTP1B, 480 nM.
In the same order, the values of `COC(=O)N[C@@H](Cc1ccccc1)C(=O)N[C@@H](Cc1ccc(NS(=O)(=O)O)cc1)c1csc(CS(=O)(=O)c2ccc(Cl)cc2)n1` [4-{(S)-2-{2-[(4-Chlorophenylsulfonyl)methyl]thiazol-4-yl}-2-[(S)-2-(methoxycarbonylamino)-3-phenylpropanamido]ethyl}phenylsulfamic acid] are 0.08 nM and 2540 nM.
In the same order, the values of `COc1cccc(-c2csc([C@H](Cc3ccc(NS(=O)(=O)O)cc3)NC(=O)C(C)(C)C)n2)c1` [4-((S)-2-(4-(3-Methoxyphenyl)thiazol-2-yl)-2-pivalamidoethyl)phenylsulfamic acid] are 110 nM and 40100 nM.
In the same order, the values of `CCCc1csc([C@H](Cc2ccc(NS(=O)(=O)O)cc2)NC(=O)OC(C)(C)C)n1` [(S)-4-(2-(tert-Butoxycarbonylamino)-2-(4-propylthiazol-2-yl)ethyl)phenyl sulfamic acid] are 40 nM and 35600 nM.
Regarding `COC(=O)N[C@@H](Cc1ccccc1)C(=O)N[C@@H](Cc1ccc(NS(=O)(=O)O)cc1)c1ncc(-c2ccccc2)s1` [4-{(S)-2-[(S)-2-(Methoxycarbonylamino)-3-phenylpropanamido]-2-(5-phenylthiazol-2-yl)ethyl}phenylsulfamic acid], the figures for the IC50 on HPTPβ and at PTP1B were 0.3 nM and 810 nM, respectively.
Turning to `COC(=O)N[C@@H](Cc1ccccc1)C(=O)N[C@@H](Cc1ccc(NS(=O)(=O)O)cc1)c1nc(C2CC2)cs1` [4-{(S)-2-(4-Cyclopropylthiazol-2-yl)-2-[(S)-2-(methoxy-carbonylamino)-3-phenylpropanamido]ethyl}phenylsulfamic acid], the values for the IC50 against HPTPβ and against PTP1B were 0.01 nM and 300 nM, respectively.
The like results for `CC(C)(C)C(=O)N[C@@H](Cc1ccc(NS(=O)(=O)O)cc1)c1nc(CO)cs1` [(S)-4-{2-[4-(hydroxymethyl)thiazol-2-yl]-2-pivalamidoethyl}phenyl-sulfamic acid] were, in that order, 266 nM and 50000 nM.
In the same order, the values of `COC(=O)N[C@@H](Cc1ccccc1)C(=O)N[C@@H](Cc1ccc(NS(=O)(=O)O)cc1)c1nc(C)cs1` [4-{(S)-2-[(S)-2-(Methoxycarbonylamino)-3-phenylpropanamido]-2-(4-methylthiazol-2-yl)ethyl}phenylsulfamic acid] are 1 nM and 480 nM.
In the same order, the values of `CC(C)(C)OC(=O)N[C@@H](Cc1ccc(NS(=O)(=O)O)cc1)c1nc(C(C)(C)C)cs1` [(S)-4-(2-(tert-Butoxycarbonylamino)-2-(4-tert-butylthiazol-2-yl)ethyl)phenyl sulfamic acid] are 27 nM and 50000 nM.
Take `CCc1csc([C@H](Cc2ccc(NS(=O)(=O)O)cc2)NC(=O)[C@@H](Cc2ccccc2)NC(=O)OC(C)(C)C)n1` [4-{(S)-2-[(R)-2-(tert-butoxycarbonylamino)-3-phenylpropanamido]-2-(4-ethylthiazol-2-yl)ethyl}phenylsulfamic acid]: the half-maximal inhibitory concentration (IC50) on HPTPβ was found to be 4 nM; against PTP1B, 7120 nM.
In the same order, the values of `CCOC(=O)N[C@@H](Cc1ccccc1)C(=O)N[C@@H](Cc1ccc(NS(=O)(=O)O)cc1)c1nc(CC)cs1` [4-{(S)-2-[(S)-2-(Ethoxycarbonylamino)-3-phenylpropanamido]-2-(4-ethylthiazol-2-yl)ethyl}phenylsulfamic acid] are 0.14 nM and 680 nM.
The like results for “(S)-4-(2-(tert-Butoxycarbonylamino)-2-(2-pivalamidothiazol-4-yl)ethyl)phenylsulfamic acid” were, in that order, 555 nM and 9120 nM.
The like results for `CC(C)(C)OC(=O)N[C@@H](Cc1ccc(NS(=O)(=O)O)cc1)c1nc(-c2ccccc2)cs1` [[1-(S)-(Phenylthiazol-2-yl)-2-(4-sulfoaminophenyl)ethyl]-carbamic acid tert-butyl ester] were, in that order, 49 nM and 33000 nM.
As to `COC(=O)N[C@@H](Cc1ccccc1)C(=O)N[C@@H](Cc1ccc(NS(=O)(=O)O)cc1)c1csc(C)n1` [4-{(S)-2-[(S)-2-(Methoxycarbonylamino)-3-phenylpropanamido]-2-(2-methylthiazol-4-yl)ethyl}phenylsulfamic acid], the half-inhibitory concentration (IC50) on HPTPβ is 1 nM; against PTP1B, 1160 nM.
In the case of `CCc1csc([C@H](Cc2ccc(NS(=O)(=O)O)cc2)NC(=O)[C@@H](NC(=O)OC)C(C)C)n1` [4-{(S)-2-(4-Ethylthiazol-2-yl)-2-[(S)-2-(methoxycarbonylamino)-3-methylbutanamido]-ethyl}phenylsulfamic acid], the values for the 50% inhibitory concentration (IC50) against HPTPβ and against PTP1B were 3 nM and 1030 nM, respectively.
The like results for `CC(C)(C)OC(=O)N[C@@H](Cc1ccc(NS(=O)(=O)O)cc1)c1nc(CO)cs1` [(S)-4-(2-(tert-Butoxycarbonylamino)-2-(4-(hydroxymethyl)thiazol-2-yl)ethyl)phenylsulfamic acid] were, in that order, 644 nM and 31600 nM.
As for `COCc1csc([C@H](Cc2ccc(NS(=O)(=O)O)cc2)NC(=O)OC(C)(C)C)n1` [(S)-4-(2-(tert-Butoxycarbonylamino)-2-(4-(methoxymethyl)thiazol-2-yl)ethyl)-phenyl sulfamic acid], the half-inhibitory concentration (IC50) at HPTPβ turned out to be 180 nM; against PTP1B, 27600 nM.
As to `COC(=O)N[C@@H](Cc1ccccc1)C(=O)N[C@@H](Cc1ccc(NS(=O)(=O)O)cc1)c1nc2c(s1)CCC2` [4-{(S)-2-(5,6-Dihydro-4H-cyclopenta[d]thiazol-2-yl)-2-[(S)-2-(methoxycarbonylamino)-3-phenylpropanamido]ethyl}phenylsulfamic acid], the results for the IC50 against HPTPβ and on PTP1B were 1 nM and 180 nM, respectively.
Turning to `CC(C)(C)C(=O)N[C@@H](Cc1ccc(NS(=O)(=O)O)cc1)c1nc(-c2ccc(-c3ccccc3)cc2)cs1` [(S)-4-(2-(4-(Biphen-4-yl)thiazol-2-yl)-2-pivalamidoethyl)phenylsulfamic acid], the 50% inhibitory concentration (IC50) at HPTPβ is 381 nM; against PTP1B it was 28600 nM.
Regarding “(S)-4-(2-(tert-Butoxycarbonyl)-2-(4-(2-(2-methoxy-2-oxoyethyl amino)-2-oxoethyl)thiazole-2-yl)ethyl)phenylsulfamic acid”, the IC50 at HPTPβ was 132 nM; against PTP1B, 50000 nM.

The term IC50 denotes the concentration at which inhibition is half-maximal. Higher therefore signals weaker potency.
